The text below walks through data of ChEMBL document CHEMBL5500404, “Discovery and Development of NLRP3 Inhibitors Targeting the LRR Domain to Disrupt NLRP3-NEK7 Interaction for the Treatment of Rheumatoid Arthritis” (J Med Chem, 2024).

A word on the MRT last: it is the average time that molecules of a dose stay in the body. By bioavailability is commonly meant dose-corrected exposure relative to a reference, in per cent. In general, half-life refers to how long it takes for the measured level to halve. Lower therefore signals fast loss. By CL/F is commonly meant the apparent clearance, not corrected for the fraction that reaches the circulation.

Data set [1] deals with THP-M. Description: Effect on ASC (apoptosis-related speck-like protein containing a CARD) level in LPS/nigericin-induced human THP-M cells assessed as inhibition of pro-IL-1beta level at 20 to 60 uM pretreated for 24 hrs followed by stimulated with LPS for 3 hrs and ATP for 1 hr by Western blot analysis relative to control. It is filed as functional, cell-based. The conditions noted are these: dose 20-60 µM, time 28.0 hrs.

Data set [2] in a line: MRT (0 to t) in Sprague-Dawley rat at 20 mg/kg, ip measured upto 720 mins by LC-MS/MS analysis. Type of data set: ADME, organism-based. Conditions: in vivo.
The test system of data set [3] is Rattus norvegicus. Description: Anti-inflammatory activity against complete Freund's adjuvant (CFA)-induced arthritis rat model assessed as decrease in spleen index at 20 to 80 mg/kg, ip treated after 17 days of CFA challenge measured after 18 days (day 17 to 34) relative to model group. The conditions noted are these: dose 20-80 mg/kg, time 18.0 day. Type of data set: functional, organism-based.

Data set [4] can be described thus: Bioavailability in Sprague-Dawley rat at 20 mg/kg, ip measured upto 720 mins by LC-MS/MS analysis. It is filed as ADME, organism-based. Conditions: in vivo.
For data set [5], the system named is Rattus norvegicus. Nature of the data set: Anti-inflammatory activity against complete Freund's adjuvant (CFA)-induced arthritis rat model assessed as reduction in IL-1beta in rat synovium from the left rear ankle at 20 to 80 mg/kg, ip treated after 17 days of CFA challenge measured after 18 days (day 17 to 34) by immunohistochemistry based assay relative to model group. Type of data set: functional, organism-based. The conditions noted are these: dose 20-80 mg/kg, time 18.0 day.

The subject of data set [6] is Rattus norvegicus. Description: Anti-inflammatory activity against complete Freund's adjuvant (CFA)-induced arthritis rat model assessed as decrease in thymus size at 20 to 80 mg/kg, ip treated after 17 days of CFA challenge measured after 18 days (day 17 to 34) relative to model group. It is filed as functional, organism-based. Conditions: dose 20-80 mg/kg, time 18.0 day.

The subject of data set [7] is Rattus norvegicus. Description: Anti-inflammatory activity against complete Freund's adjuvant (CFA)-induced arthritis rat model assessed as synovial hyperplasia in rat synovium from the left rear ankle at 20 to 80 mg/kg, ip treated after 17 days of CFA challenge measured after 18 days (day 17 to 34) by H and E staining based assay relative to model group. Type of data set: functional, organism-based. Conditions: dose 20-80 mg/kg, time 18.0 day.

The subject of data set [8] is Rattus norvegicus. Nature of the data set: Anti-inflammatory activity against complete Freund's adjuvant (CFA)-induced arthritis rat model assessed as decrease in spleen size at 20 to 80 mg/kg, ip treated after 17 days of CFA challenge measured after 18 days (day 17 to 34) relative to model group. It is filed as functional, organism-based. Conditions: dose 20-80 mg/kg, time 18.0 day.

Data set [9] concerns Rattus norvegicus. Description: Anti-inflammatory activity against complete Freund's adjuvant (CFA)-induced arthritis rat model assessed as decrease in serum IL-1beta level at 20 to 80 mg/kg, ip treated after 17 days of CFA challenge measured after 18 days (day 17 to 34) by ELISA relative to model group. Type of data set: functional, organism-based. Conditions: dose 20-80 mg/kg, time 18.0 day. Background: In an ELISA, binding on a coated surface is turned into a signal by an enzyme label.

Data set [10] is described as follows: Half life in Sprague-Dawley rat at 20 mg/kg, ip measured upto 720 mins by LC-MS/MS analysis. It is filed as ADME, organism-based. Conditions: in vivo.
For data set [11], the system named is THP-M. Description: Reduction of reactive oxygen species production in human THP-M cells pretreated for 24 hrs followed by stimulated with LPS for 3 hrs and ATP for 1 hr by Mitochondrial damage experiment. Type of data set: functional, cell-based. Conditions: time 28.0 hrs.
Data set [12] has as its system THP-M. Nature of the data set: Effect on transcription of NLRP3 in LPS-induced human THP-M cells assessed as NLRP3 mRNA expression at 10 to 50 uM pretreated for 24 hrs followed by stimulated with LPS for 4 hrs by qRT-PCR analysis. It is filed as functional, cell-based. The conditions noted are these: dose 10-50 µM, time 28.0 hrs.
Data set [13] in a line: Apparent clearance during terminal phase in Sprague-Dawley rat at 20 mg/kg, IG measured upto 1440 mins by LC-MS/MS analysis. It is filed as ADME, organism-based. The conditions noted are these: in vivo, po.
Data set [14] relates to THP-M. Nature of the data set: Induction of mitochondrial membrane potential loss in human THP-M cells pretreated for 24 hrs followed by stimulated with LPS for 3 hrs and ATP for 1 hr by Mitochondrial damage experiment. It is filed as functional, cell-based. Conditions: time 28.0 hrs.
Data set [15] relates to THP-M. Nature of the data set: Inhibition of NLRP3 and […] protein-protein interaction in human THP-M cells assessed as suppression activation of NLRP3 inflammasome by affecting ASC oligomerization at 10 to 50 uM pretreated for 24 hrs followed by stimulated with LPS for 3 hrs and ATP for 1 hr by co-IP analysis. It is filed as cell-based. Conditions: dose 10-50 µM, time 28.0 hrs.

Each structure is given as a SMILES string. The source made the active and inactive calls. The calls are words filed in the database; no cut-off is given here.

Take `COCCCNC(=O)c1ccc(Cn2c(SCC3CCCCC3)nc3ccncc32)cc1`: the inhibition entry with THP-M [1] is “inactive”. The MRT last at 12 h in data set [2] was 41.9 min. Also, the result with Rattus norvegicus [3], in the data set with Rattus norvegicus [5], in the data set with Rattus norvegicus [6], in the data set on Rattus norvegicus [7], in the data set with Rattus norvegicus [8] and in the data set with Rattus norvegicus [9] was Active. In data set [4], this compound returned a bioavailability of 11.5%. This compound also came in with a half-life in data set [10] of 44.1 min. Further, the result in the data set with THP-M [11], in the data set with THP-M [12] and in the data set with THP-M [14] was inactive. Besides, in [13], the CL/F is 410 mL/min/kg. In addition, the inhibition result in the data set with THP-M [15] was “Dose-Dependent Effect”.
